Assay results: patent US8524740B2, “Synthesis and anticancer activity of aryl and heteroaryl-quinolin derivatives” (Tairx, Inc., priority 2010, dated 2013)

Assays:
[1] = test system: HL-60; experiment: MTT assay, HL-60 cells; format: cell-based; settings: Homo sapiens
Method: (§1) MTT (3-(4,5-Dimethylthiazol-2-yl)-2,5-diphenyltetrazolium bromide) assays.^21,22 HL-60, HCT-116, Hep 3B, H460, Detroit 551 and HT29/FuR cells were treated with tested compounds for the indicated periods. After treatment, cells were washed once with PBS and incubated with MTT (Sigma, St. Louis, Mo., USA) for 2 h. The formazan precipitate was dissolved in 150 μL of DMSO, and the absorbance was measured with an ELISA reader at 570 nm.
(§2) HL-60, Hep 3B, H460, MES-SA, MES-SAID x5 and Detroit 551 cells were treated with vehicle or test compounds for 48 h. The cell growth rate was determined by MTT (3-(4,5-dimethyl-thiazol-2-yl)-2,5-diphenyltetrazoliun bromide) reduction assay.
as §1, with “assays.” for “assays.^21,22”, “HCT-116, A549,” for “HCT-116,”, “KB, Kb-VIN” for “H460, Detroit 551”, “DU145” for “HT29/FuR”
as §1, with “assays.” for “assays.^21,22”, “HL-60,” for “HL-60, HCT-116,”, “H460, A498, Colo205 and” for “H460,”, “551” for “551 and HT29/FuR”

[2] = test system: Detroit 551; experiment: MTT assay, Detroit 551 normal human cells; format: cell-based; settings: for IC50: Detroit 551; for toxicity toward Detroit 551 normal human cell (in words): Table 1 compounds
Method: as §1, §2
as §1, with “assays.” for “assays.^21,22”, “HL-60,” for “HL-60, HCT-116,”, “H460, A498, Colo205 and” for “H460,”, “551” for “551 and HT29/FuR”

[3] = test system: H460; experiment: MTT assay, H460 cells; format: cell-based; settings: Homo sapiens, NCI-H460
Method: as §1, §2
as §1, with “assays.” for “assays.^21,22”, “HL-60,” for “HL-60, HCT-116,”, “H460, A498, Colo205 and” for “H460,”, “551” for “551 and HT29/FuR”

[4] = test system: Hep3B; experiment: MTT assay, Hep 3B cells; format: cell-based; settings: Homo sapiens
Method: as §1, §2
as §1, with “assays.” for “assays.^21,22”, “HCT-116, A549,” for “HCT-116,”, “KB, Kb-VIN” for “H460, Detroit 551”, “DU145” for “HT29/FuR”
as §1, with “assays.” for “assays.^21,22”, “HL-60,” for “HL-60, HCT-116,”, “H460, A498, Colo205 and” for “H460,”, “551” for “551 and HT29/FuR”

[5] = test system: HT29/5FuR; experiment: MTT assay, HT29/5FuR cells; format: cell-based; settings: Homo sapiens, HT-29, Table 1, 48 h
Method: as §1

[6] = test system: HCT116; experiment: MTT assay, HCT-116 cells; format: cell-based; settings: Homo sapiens, Table 1, 48 h
Method: as §1
as §1, with “assays.” for “assays.^21,22”, “HCT-116, A549,” for “HCT-116,”, “KB, Kb-VIN” for “H460, Detroit 551”, “DU145” for “HT29/FuR”

[7] = test system: HL-60, HCT-116, Hep3B, H-460; experiment: Cytotoxicity screen (MTT) against human cancer cell lines, results in words; format: cell-based; settings: comparison within sub-series or with CHM-2133
Method: as §1, §2

[8] = Homo sapiens, Table 4, B-3 series, 48 hrs
[9] = Table 1, 48 h, MTT, normal human cell
[10] = Homo sapiens, Table 3, B-2 series, 48 hrs
[11] = Homo sapiens, Table 2, B-1 series, 48 hrs

## CN(C)c1ccc2c(c1)C(=O)CC(c1cccc(OCc3ccccc3)c1)=N2 [Compound 118, 2-(3-Benzyloxyphenyl)-6-dimethylaminoquinolin-4-one]
other
  melting point: 307 to 308 °C

## CN(C)c1ccc2c(c1)C(=O)CC(c1ccccc1O)=N2 [Compound 136, 2-(2-Hydroxyphenyl)-6-dimethylaminoquinolin-4-one]
other
  melting point: 296 to 298 °C
[1]; Table 4, B-3 series, 48 hrs
  IC50: 3.02 µM
[2]; [8]
  IC50: 100 µM
[3]; Table 4, B-3 series, 48 hrs
  IC50: 5.4 µM
[4]; Table 4, B-3 series, 48 hrs
  IC50: 7.1 µM

## O=C1CC(c2ccc(OCc3ccccc3)cc2)=Nc2ccc(N3CCOCC3)cc21 [Compound 119, 2-(4-Benzyloxyphenyl)-6-morpholinoquinolin-4-one]
other
  melting point: 320 to 323 °C

## O=C1CC(c2cccc(OCc3ccccc3)c2)=Nc2ccc(N3CCCC3)cc21 [Compound 117, 2-(3-Benzyloxyphenyl)-6-pyrrolidinoquinolin-4-one]
other
  melting point: 320 to 322 °C

## O=C1CC(c2cccc(F)c2)=Nc2ccc(O)c(O)c21 [Compound 41, 2-(3-Fluorophenyl)-5,6-dihydroxyquinolin-4-one]
[5]
  IC50: 0.53 µM
[6]
  IC50: 8.2 µM
[1]; Table 1, 48 h, MTT
  IC50: 0.3 µM
[7]
  cytotoxicity (in words): greater cytotoxicity
[2]; [9]
  IC50: > 100 µM
[3]; Table 1, 48 h, MTT
  IC50: 6.1 µM
[4]; Table 1, 48 h, MTT
  IC50: 6.9 µM

## COc1cc2c(cc1OCc1ccccc1)N=C(c1ccc(F)cc1)CC2=O [Compound 24, 7-Benzyloxy-2-(4-fluorophenyl)-6-methoxyquinolin-4-one]
other
  melting point: 248 to 249 °C

## O=C1CC(c2ccccc2OCc2ccccc2)=Nc2ccc(N3CCCC3)cc21 [Compound 114, 2-(2-Benzyloxyphenyl)-6-pyrrolidinoquinolin-4-one]
other
  melting point: 293 to 295 °C

## COc1cc2c(cc1OCc1ccccc1)N=C(c1ccccc1F)CC2=O [Compound 22, 7-Benzyloxy-2-(2-fluorophenyl)-6-methoxyquinolin-4-one]
other
  melting point: 132 to 134 °C

## COc1ccc2c(c1O)C(=O)CC(c1ccccc1F)=N2 [Compound 37, 2-(2-Fluorophenyl)-5-hydroxy-6-methoxyquinolin-4-one]
[5]
  IC50: 0.2 µM
[6]
  IC50: 0.05 µM
[1]; Table 1, 48 h, MTT
  IC50: 0.067 µM
[7]
  cytotoxicity (in words): greater cytotoxicity
[2]; [9]
  IC50: 10 µM
[2]
  toxicity toward Detroit 551 normal human cell (in words): lower toxicity
[3]; Table 1, 48 h, MTT
  IC50: 0.11 µM
[4]; Table 1, 48 h, MTT
  IC50: 0.05 µM

## COc1cc(C2=Nc3ccc(N4CCCC4)cc3C(=O)C2)ccc1O [Compound 144, 2-(4-Hydroxy-3-methoxyphenyl)-6-pyrrolidinoquinolin-4-one]
other
  melting point: 310 to 312 °C
[1]; Table 3, B-2 series, 48 hrs
  IC50: 0.038 µM
[2]; [10]
  IC50: > 2.5 µM
[3]; Table 3, B-2 series, 48 hrs
  IC50: 0.56 µM
[4]; Table 3, B-2 series, 48 hrs
  IC50: 0.38 µM

## CN(C)c1ccc2c(c1)C(=O)CC(c1ccccc1OCc1ccccc1)=N2 [Compound 115, 2-(2-Benzyloxyphenyl)-6-dimethylaminoquinolin-4-one]
other
  melting point: 210 to 212 °C

## O=C1CC(c2ccc(OCc3ccccc3)cc2)=Nc2ccc(N3CCCC3)cc21 [Compound 120, 2-(4-Benzyloxyphenyl)-6-pyrrolidinoquinolin-4-one]
other
  melting point: 330 to 332 °C

## O=C1CC(c2ccc(O)cc2)=Nc2ccc(N3CCOCC3)cc21 [Compound 140, 2-(4-Hydroxyphenyl)-6-morpholinoquinolin-4-one]
other
  melting point: 340 to 342 °C
[1]; Table 2, B-1 series, 48 hrs
  IC50: 1.64 µM
[3]; Table 2, B-1 series, 48 hrs
  IC50: > 10 µM
[4]; Table 2, B-1 series, 48 hrs
  IC50: > 10 µM

## O=C1CC(c2ccccc2F)=Nc2ccc(O)c(O)c21 [Compound 40, 2-(2-Fluorophenyl)-5,6-dihydroxyquinolin-4-one]
[5]
  IC50: 1.63 µM
[6]
  IC50: 0.6 µM
[1]; Table 1, 48 h, MTT
  IC50: 0.5 µM
[7]
  cytotoxicity (in words): greater cytotoxicity
[2]; [9]
  IC50: > 100 µM
[3]; Table 1, 48 h, MTT
  IC50: 4.1 µM
[4]; Table 1, 48 h, MTT
  IC50: 3.9 µM

## COc1ccc(O)cc1C1=Nc2ccc(N3CCCC3)cc2C(=O)C1 [Compound 143b, 2-(5-hydroxy-2-methoxyphenyl)-6-pyrrolidinoquinolin-4-one]
[1]; Table 2, B-1 series, 48 hrs
  IC50: 56.2 µM
[2]; [11]
  IC50: > 100 µM
[3]; Table 2, B-1 series, 48 hrs
  IC50: > 100 µM
[4]; Table 2, B-1 series, 48 hrs
  IC50: 59.3 µM

## COc1cc2c(cc1OCc1ccccc1)N=C(c1cccc(F)c1)CC2=O [Compound 23, 7-Benzyloxy-2-(3-fluorophenyl)-6-methoxyquinolin-4-one]
other
  melting point: 154 to 155 °C

## CN(C)c1ccc2c(c1)C(=O)CC(c1ccc(OCc3ccccc3)cc1)=N2 [Compound 121, 2-(4-Benzyloxyphenyl)-6-dimethylaminoquinolin-4-one]
other
  melting point: 283 to 285 °C

## COc1ccc(C2=Nc3ccc(N4CCCC4)cc3C(=O)C2)cc1 [Compound 133, 2-(4-Methoxyphenyl)-6-pyrrolidinoquinolin-4-one]
other
  melting point: 312 to 313 °C
[1]; Table 3, B-2 series, 48 hrs
  IC50: > 1 µM
[2]; [10]
  IC50: > 1 µM
[3]; Table 3, B-2 series, 48 hrs
  IC50: > 1 µM
[4]; Table 3, B-2 series, 48 hrs
  IC50: > 1 µM

## COc1ccc2c(c1O)C(=O)CC(c1ccc(F)cc1)=N2 [Compound 39, 2-(4-Fluorophenyl)-5-hydroxy-6-methoxyquinolin-4-one]
[5]
  IC50: 0.33 µM
[6]
  IC50: 2.4 µM
[1]; Table 1, 48 h, MTT
  IC50: 1.8 µM
[7]
  cytotoxicity (in words): weaker
[2]; [9]
  IC50: > 25 µM
[3]; Table 1, 48 h, MTT
  IC50: 8.8 µM
[4]; Table 1, 48 h, MTT
  IC50: 11 µM

## CN(C)c1ccc2c(c1)C(=O)CC(c1ccc(O)cc1)=N2 [Compound 142, 2-(4-Hydroxyphenyl)-6-dimethylaminoquinolin-4-one]
other
  melting point: 321 to 323 °C
[1]; Table 4, B-3 series, 48 hrs
  IC50: 0.64 µM
[2]; [8]
  IC50: 75 µM
[3]; Table 4, B-3 series, 48 hrs
  IC50: 0.56 µM
[4]; Table 4, B-3 series, 48 hrs
  IC50: 9 µM

## O=C1CC(c2ccc(F)cc2)=Nc2ccc(O)c(O)c21 [Compound 42, 2-(4-Fluorophenyl)-5,6-dihydroxyquinolin-4-one]
[6]
  IC50: > 100 µM
[1]; Table 1, 48 h, MTT
  IC50: 38.6 µM
[7]
  cytotoxicity (in words): weaker
[2]; [9]
  IC50: > 100 µM
[3]; Table 1, 48 h, MTT
  IC50: 100 µM
[4]; Table 1, 48 h, MTT
  IC50: 100 µM

## O=C1CC(c2ccc(O)cc2)=Nc2ccc(N3CCCC3)cc21 [Compound 141, 2-(4-Hydroxyphenyl)-6-pyrrolidinoquinolin-4-one]
other
  melting point: 304 to 306 °C
[1]; Table 3, B-2 series, 48 hrs
  IC50: 0.04 µM
[2]; [10]
  IC50: > 25 µM
[3]; Table 3, B-2 series, 48 hrs
  IC50: 1.56 µM
[4]; Table 3, B-2 series, 48 hrs
  IC50: 1.1 µM

## O=C1CC(c2cccc(OCc3ccccc3)c2)=Nc2ccc(N3CCOCC3)cc21 [Compound 116, 2-(3-Benzyloxyphenyl)-6-morpholinoquinolin-4-one]
other
  melting point: 283 to 285 °C

## COc1ccc2c(c1O)C(=O)CC(c1cccc(F)c1)=N2 [Compound 38, 2-(3-Fluorophenyl)-5-hydroxy-6-methoxyquinolin-4-one]
[5]
  IC50: 0.26 µM
[6]
  IC50: 0.073 µM
[1]; Table 1, 48 h, MTT
  IC50: 0.039 µM
[7]
  cytotoxicity (in words): greater cytotoxicity
[2]; [9]
  IC50: > 50 µM
[2]
  toxicity toward Detroit 551 normal human cell (in words): lower toxicity
[3]; Table 1, 48 h, MTT
  IC50: 0.088 µM
[4]; Table 1, 48 h, MTT
  IC50: 0.078 µM

## COc1cc(C2=Nc3ccc(N4CCOCC4)cc3C(=O)C2)ccc1O [Compound 143, 2-(4-Hydroxy-3-methoxyphenyl)-6-morpholinoquinolin-4-one]
other
  melting point: 297 to 299 °C
[1]; Table 2, B-1 series, 48 hrs
  IC50: 3.9 µM
[2]; [11]
  IC50: 50 µM
[3]; Table 2, B-1 series, 48 hrs
  IC50: 50 µM
[4]; Table 2, B-1 series, 48 hrs
  IC50: 50 µM

## COc1ccc(O)cc1C1=Nc2ccc(N3CCOCC3)cc2C(=O)C1 [Compound 143a, 2-(5-hydroxy-2-methoxyphenyl)-6-morpholinoquinolin-4-one]
[1]; Table 2, B-1 series, 48 hrs
  IC50: 93.8 µM
[2]; [11]
  IC50: > 100 µM
[3]; Table 2, B-1 series, 48 hrs
  IC50: 84.8 µM
[4]; Table 2, B-1 series, 48 hrs
  IC50: > 100 µM

## COc1cc(OCc2ccccc2)cc(C2=Nc3cc4c(cc3C(=O)C2)OCO4)c1 [Compound 165, 2-(3-Benzyloxy-5-methoxyphenyl)-6,7-methylenedioxyquinolin-4-one]
other
  melting point: 235 to 238 °C

## COc1ccc(C2=Nc3ccc(N4CCOCC4)cc3C(=O)C2)cc1 [Compound 132, 2-(4-Methoxyphenyl)-6-morpholinoquinolin-4-one]
other
  melting point: 302 to 304 °C
[1]; Table 2, B-1 series, 48 hrs
  IC50: > 2.5 µM
[2]; [11]
  IC50: > 2.5 µM
[3]; Table 2, B-1 series, 48 hrs
  IC50: > 2.5 µM
[4]; Table 2, B-1 series, 48 hrs
  IC50: > 2.5 µM

## COc1cc(C2=Nc3ccc(N4CCCC4)cc3C(=O)C2)ccc1OCc1ccccc1 [Compound 123, 2-(4-(Benzyloxy)-3-methoxyphenyl)-6-pyrrolidinoquinolin-4-one]
other
  melting point: 304 to 306 °C

## COc1ccc2c(c1OC)C(=O)CC(c1ccccc1F)=N2 [Compound 16, 2-(2-Fluorophenyl)-5,6-dimethoxyquinolin-4-one]
[5]
  IC50: 2.03 µM
[6]
  IC50: > 20 µM
[1]; Table 1, 48 h, MTT
  IC50: 3.7 µM
[2]; [9]
  IC50: > 20 µM
[3]; Table 1, 48 h, MTT
  IC50: > 20 µM
[4]; Table 1, 48 h, MTT
  IC50: > 20 µM
